We go through two compounds from patent publication US11964951B2, “Process of making derivatives of substituted morpholines” (Supernus Pharmaceuticals, Inc., priority 2022, dated 2024).

Series [1] in a line: chemical stability on standing / by HPLC during work-up. It counts as physicochemical. To be noted: kept at room temperature overnight. The method, then:
The process was repeated. The mother liquor materials were combined. A 15-g portion of the mother liquor material (a syrupy liquid) was subjected to a water-acid-base extraction by dissolving the mother liquor in 50 mL of ethyl acetate and washing with water then with 1N HCl (2×). The ethyl acetate layer contained 2-((2-ethoxyphenoxy)methyl)morpholine, unreacted BOC compound 5, and a trace of the desired compound. The HCl solution was mainly the desired amine 6 HCl salt plus some 2-((2-ethoxyphenoxy)methyl)morpholine and a minor impurity. This solution was made alkaline with sodium bicarbonate, extracted with dichloromethane (3×) washed with brine, and dried over magnesium sulfate. […] The material was kept at room temperature overnight whereupon it decomposed.
The ethyl acetate solution of the free base was treated with a solution of 150 mg of maleic acid in 2 mL of isopropanol. […] The material was dissolved in dichloromethane, washed with water, and evaporated to give 374 mg of the maleate as an oil.

The conditions of series [2]: relative to the (R)-(+)-isomer; J. Med. Chem. 1976, 19(8), 1074; cited from earlier work.

Regarding `CCOc1ccccc1OC[C@@H]1CN(C(=O)OC(C)OC(=O)[C@@H](N)C(C)C)CCO1.Cl` (mixture of isomers) [Compound 6, 1-[(S)-2-Amino-3-methylbutyroxy]ethyl (S)-2-[(o-ethoxyphenoxy)methyl]-4-morpholinecarboxylate, hydrochloride], the “stability of the isolated material” value in series [1] is “decomposed”.

Turning to `CCOc1ccccc1OC[C@@H]1CNCCO1` [(S)-enantiomer, (S)-2-((2-ethoxyphenoxy)methyl)morpholine], in series [2], the “pharmacological activity as compared to the (R)-(+)-isomer” value is recorded as “five times”.
